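Values below derive from 48-hour exposures of cells grown in 96-well plates, with endpoints linearly interpolated between the two concentrations bracketing the appropriate inhibition level. Abbreviation: GI50, concentration required for 50% inhibition of growth. TGI marks complete inhibition of growth.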
Legend:
Assay in all cases: growth of human tumour cells (NCI), 48 h
[1] = tested on: 786-0 renal
[2] = tested on: A498 renal
[3] = tested on: A549 NSCLC
[4] = tested on: ACHN renal
[5] = tested on: BT-549 breast
[6] = tested on: CAKI-1 renal
[7] = tested on: CCRF-CEM leukemia
[8] = tested on: COLO 205 colon
[9] = tested on: DU-145 prostate
[10] = tested on: EKVX NSCLC
[11] = tested on: HCC-2998 colon
[12] = tested on: HCT-116 colon
[13] = tested on: HCT-15 colon
[14] = tested on: HL-60(TB) leukemia
[15] = tested on: HOP-62 NSCLC
[16] = tested on: HOP-92 NSCLC
[17] = tested on: HS 578T breast
[18] = tested on: HT29 colon
[19] = tested on: IGROV1 ovarian
[20] = tested on: K-562 leukemia
[21] = tested on: KM12 colon
[22] = tested on: LOX IMVI melanoma
[23] = tested on: M14 melanoma
[24] = tested on: MALME-3M melanoma
[25] = tested on: MCF7 breast
[26] = tested on: MDA-MB-231 breast
[27] = tested on: MDA-MB-435
[28] = tested on: MDA-MB-468 breast
[29] = tested on: MOLT-4 leukemia
[30] = tested on: NCI-H226 lung
[31] = tested on: NCI-H23 lung
[32] = tested on: NCI-H460 lung
[33] = tested on: NCI-H522 lung
[34] = tested on: NCI/ADR-RES ovarian
[35] = tested on: OVCAR-3 ovarian
[36] = tested on: OVCAR-4 ovarian
[37] = tested on: OVCAR-5 ovarian
[38] = tested on: OVCAR-8 ovarian
[39] = tested on: PC-3 prostate
[40] = tested on: RXF 393 renal
[41] = tested on: SF-268 CNS
[42] = tested on: SF-295 CNS
[43] = tested on: SF-539 CNS
[44] = tested on: SK-MEL-2 melanoma
[45] = tested on: SK-MEL-28 melanoma
[46] = tested on: SK-MEL-5 melanoma
[47] = tested on: SK-OV-3 ovarian
[48] = tested on: SN12C renal
[49] = tested on: SNB-19 CNS
[50] = tested on: SNB-75 CNS
[51] = tested on: SR leukemia
[52] = tested on: SW-620 colon
[53] = tested on: T-47D breast
[54] = tested on: TK-10 renal
[55] = tested on: U251 CNS
[56] = tested on: UACC-257 melanoma
[57] = tested on: UACC-62 melanoma
[58] = tested on: UO-31 renal

Question: How did the GI50 [1] turn out when `CCCn1c(=O)c2[nH]c(-c3ccc(OCc4nc5ccccc5[nH]4)cc3)nc2n(CCC)c1=O` was run?
Answer: Its GI50 is 2.83 µM.

Question: What about the TGI [1] of the same molecule?
Answer: The TGI was 10.6 µM.

Question: And the GI50 [2]?
Answer: The GI50 was 14.3 µM.

Question: And the TGI [2]?
Answer: The TGI was 32.3 µM.

Question: What about the GI50 [3] of the same molecule?
Answer: Its GI50 is 5.92 µM.

Question: And the TGI [3]?
Answer: The TGI was > 100 µM.

Question: And the GI50 [4]?
Answer: The GI50 was 5 µM.

Question: And the TGI [4]?
Answer: The TGI was 24.9 µM.

Question: And the GI50 [5]?
Answer: Its GI50 is 8.41 µM.

Question: And the TGI [5]?
Answer: The TGI was 45.5 µM.

Question: What about the GI50 [6] of the same molecule?
Answer: Its GI50 is 2.95 µM.

Question: What about the TGI [6] of the same molecule?
Answer: Its TGI is 11.9 µM.

Question: And the GI50 [7]?
Answer: The GI50 was > 100 µM.

Question: What about the TGI [7] of the same molecule?
Answer: Its TGI is > 100 µM.

Question: And the GI50 [8]?
Answer: The GI50 was > 100 µM.

Question: What about the TGI [8] of the same molecule?
Answer: Its TGI is > 100 µM.

Question: And the TGI [9]?
Answer: Its TGI is > 100 µM.

Question: What about the GI50 [10] of the same molecule?
Answer: Its GI50 is 23.5 µM.

Question: And the TGI [10]?
Answer: Its TGI is > 100 µM.

Question: What about the GI50 [11] of the same molecule?
Answer: The GI50 was 11.9 µM.

Question: What about the TGI [11] of the same molecule?
Answer: The TGI was > 100 µM.

Question: What about the GI50 [12] of the same molecule?
Answer: The GI50 was 3.94 µM.

Question: And the TGI [12]?
Answer: The TGI was > 100 µM.

Question: And the GI50 [13]?
Answer: Its GI50 is 31.9 µM.

Question: And the TGI [13]?
Answer: Its TGI is > 100 µM.

Question: What about the GI50 [14] of the same molecule?
Answer: Its GI50 is > 100 µM.

Question: What about the TGI [14] of the same molecule?
Answer: Its TGI is > 100 µM.

Question: What about the GI50 [15] of the same molecule?
Answer: Its GI50 is 8.39 µM.

Question: And the TGI [15]?
Answer: Its TGI is 24.3 µM.

Question: And the GI50 [16]?
Answer: The GI50 was 5.18 µM.

Question: What about the TGI [16] of the same molecule?
Answer: Its TGI is 25.3 µM.

Question: What about the GI50 [17] of the same molecule?
Answer: The GI50 was 2.3 µM.

Question: What about the TGI [17] of the same molecule?
Answer: The TGI was 7.76 µM.

Question: What about the GI50 [18] of the same molecule?
Answer: The GI50 was 13.2 µM.

Question: What about the TGI [18] of the same molecule?
Answer: The TGI was > 100 µM.

Question: What about the GI50 [19] of the same molecule?
Answer: The GI50 was 15.3 µM.

Question: And the TGI [19]?
Answer: Its TGI is 42.8 µM.

Question: What about the GI50 [20] of the same molecule?
Answer: Its GI50 is > 100 µM.

Question: What about the TGI [20] of the same molecule?
Answer: Its TGI is > 100 µM.

Question: What about the GI50 [21] of the same molecule?
Answer: Its GI50 is > 100 µM.

Question: And the TGI [21]?
Answer: The TGI was > 100 µM.

Question: And the GI50 [22]?
Answer: Its GI50 is 3.47 µM.

Question: What about the TGI [22] of the same molecule?
Answer: The TGI was 14.7 µM.

Question: And the GI50 [23]?
Answer: The GI50 was 26.2 µM.

Question: And the TGI [23]?
Answer: The TGI was > 100 µM.

Question: And the GI50 [24]?
Answer: The GI50 was 3.43 µM.

Question: And the TGI [24]?
Answer: The TGI was 16.4 µM.

Question: And the GI50 [25]?
Answer: The GI50 was 3.32 µM.

Question: And the TGI [25]?
Answer: Its TGI is 18.6 µM.

Question: What about the GI50 [26] of the same molecule?
Answer: The GI50 was 3.37 µM.

Question: What about the TGI [26] of the same molecule?
Answer: The TGI was 12.6 µM.

Question: What about the GI50 [27] of the same molecule?
Answer: The GI50 was 13 µM.

Question: And the TGI [27]?
Answer: The TGI was > 100 µM.

Question: And the GI50 [28]?
Answer: The GI50 was 3.13 µM.

Question: What about the TGI [28] of the same molecule?
Answer: The TGI was 16.1 µM.

Question: And the GI50 [29]?
Answer: Its GI50 is > 100 µM.

Question: What about the TGI [29] of the same molecule?
Answer: Its TGI is > 100 µM.

Question: What about the GI50 [30] of the same molecule?
Answer: The GI50 was 2.4 µM.

Question: And the TGI [30]?
Answer: Its TGI is 7.25 µM.

Question: And the GI50 [31]?
Answer: The GI50 was 5.95 µM.

Question: What about the TGI [31] of the same molecule?
Answer: Its TGI is 18.1 µM.

Question: What about the GI50 [32] of the same molecule?
Answer: Its GI50 is 3.7 µM.

Question: And the TGI [32]?
Answer: Its TGI is 15.1 µM.

Question: What about the GI50 [33] of the same molecule?
Answer: The GI50 was 11.3 µM.

Question: And the TGI [33]?
Answer: The TGI was 34.3 µM.

Question: And the GI50 [34]?
Answer: Its GI50 is 19.2 µM.

Question: And the TGI [34]?
Answer: The TGI was > 100 µM.

Question: And the GI50 [35]?
Answer: Its GI50 is 5.46 µM.

Question: What about the TGI [35] of the same molecule?
Answer: Its TGI is 23.4 µM.

Question: And the GI50 [36]?
Answer: Its GI50 is 2.99 µM.

Question: And the TGI [36]?
Answer: Its TGI is 53 µM.

Question: What about the GI50 [37] of the same molecule?
Answer: Its GI50 is 46.5 µM.

Question: And the TGI [37]?
Answer: The TGI was > 100 µM.

Question: And the GI50 [38]?
Answer: The GI50 was 8.28 µM.

Question: What about the TGI [38] of the same molecule?
Answer: Its TGI is 45.4 µM.

Question: And the GI50 [39]?
Answer: The GI50 was 17.6 µM.

Question: And the TGI [39]?
Answer: The TGI was > 100 µM.

Question: And the GI50 [40]?
Answer: Its GI50 is 2.06 µM.

Question: What about the TGI [40] of the same molecule?
Answer: The TGI was 6.94 µM.

Question: What about the GI50 [41] of the same molecule?
Answer: The GI50 was 9.2 µM.

Question: And the TGI [41]?
Answer: The TGI was 38.8 µM.

Question: And the GI50 [42]?
Answer: The GI50 was 3.04 µM.

Question: And the TGI [42]?
Answer: The TGI was 13.3 µM.

Question: What about the GI50 [43] of the same molecule?
Answer: The GI50 was 2.12 µM.

Question: What about the TGI [43] of the same molecule?
Answer: Its TGI is 5.25 µM.

Question: And the GI50 [44]?
Answer: Its GI50 is 17.6 µM.

Question: What about the TGI [44] of the same molecule?
Answer: The TGI was 34.4 µM.

Question: And the GI50 [45]?
Answer: Its GI50 is 33.5 µM.

Question: And the TGI [45]?
Answer: The TGI was > 100 µM.

Question: What about the GI50 [46] of the same molecule?
Answer: Its GI50 is 4.05 µM.

Question: What about the TGI [46] of the same molecule?
Answer: The TGI was 28 µM.

Question: And the GI50 [47]?
Answer: The GI50 was 15 µM.

Question: And the TGI [47]?
Answer: Its TGI is 32 µM.

Question: And the GI50 [48]?
Answer: The GI50 was 9.67 µM.

Question: What about the TGI [48] of the same molecule?
Answer: Its TGI is 45.7 µM.

Question: What about the GI50 [49] of the same molecule?
Answer: Its GI50 is 13.9 µM.

Question: And the TGI [49]?
Answer: The TGI was 33.1 µM.

Question: And the GI50 [50]?
Answer: Its GI50 is 1.63 µM.

Question: And the TGI [50]?
Answer: Its TGI is 5.21 µM.

Question: What about the GI50 [51] of the same molecule?
Answer: Its GI50 is > 100 µM.

Question: What about the TGI [51] of the same molecule?
Answer: The TGI was > 100 µM.

Question: And the GI50 [52]?
Answer: Its GI50 is 18 µM.

Question: What about the TGI [52] of the same molecule?
Answer: Its TGI is > 100 µM.

Question: What about the GI50 [53] of the same molecule?
Answer: The GI50 was 27.9 µM.

Question: What about the TGI [53] of the same molecule?
Answer: Its TGI is > 100 µM.

Question: What about the GI50 [54] of the same molecule?
Answer: Its GI50 is 6.89 µM.

Question: And the TGI [54]?
Answer: Its TGI is 22.2 µM.

Question: What about the GI50 [55] of the same molecule?
Answer: The GI50 was 3.83 µM.

Question: And the TGI [55]?
Answer: The TGI was 18.4 µM.

Question: What about the GI50 [56] of the same molecule?
Answer: The GI50 was 48 µM.

Question: And the TGI [56]?
Answer: Its TGI is > 100 µM.

Question: What about the GI50 [57] of the same molecule?
Answer: Its GI50 is 12 µM.

Question: And the TGI [57]?
Answer: Its TGI is 28.8 µM.

Question: What about the GI50 [58] of the same molecule?
Answer: Its GI50 is 14.5 µM.

Question: And the TGI [58]?
Answer: Its TGI is 43.4 µM.
